Source: patent US20260138981A1, “DIHYDROFOLATE REDUCTASE INHIBITORS FOR ANTI-BIOTIC RESISTANT INFECTIONS” (THE TRUSTEES OF PRINCETON UNIVERSITY, priority 2022, published 2026)

What was measured:
P. aeruginosa PA14 = assay: Drug accumulation assay (intrabacterial drug metabolism, LC/MS); type: cell-based; settings: PA14, 5 μM, compared with TMP
Experimental: FIG. 1G provides intrabacterial drug metabolism (IBDM) of PA14 treated with 5 μM fluorofolin or trimethoprim. Samples were taken at time t=0, 30, 60, and 90 minutes. Data represent mean±SD of triplicate technical replicates.
FIG. 1H provides cumulative accumulation of drugs over 90 mins by AUC of IBDM curves. Data represent mean±SD of triplicate technical replicates. (P value≤0.0001) t-test using Prism 9.
Overnight PA14 cultures were back-diluted to early-mid exponential phase (OD600=0.4-0.6). The assay was initiated with treatment of the culture with either 5.0 μM fluorofolin or 5.0 μM trimethoprim. A DMSO treated culture was utilized as a control. […] The resulting cell lysate samples were analyzed utilizing verapamil as an internal standard. […]
Compound accumulation was realized using the selective ion monitoring (SIM) mode to quantify peak integration for a compound and the internal standard using their respective m/z values. Compound peaks were confirmed using a scanning mode that detected the compound peak using an m/z range of 100-1000. Peak area integration values were determined and a ratio of the peak area for the compound to the peak area for the verapamil internal standard was calculated and compound concentration was then determined from the compound calibration curve. […]

[1] = Maximum tolerated dose (MTD); type: in vivo, mouse; settings: administered subcutaneously (SC), CD-1 mice
Experimental: P. aeruginosa thigh infection model and MTD studies: Care and handling of Female 5-6-week-old CD-1 conformed to institutional animal care and use policies as carried out at University of North Texas Health Science Center (Fort Worth, Texas). Rodents were fed either base chow or base diet supplemented with 1.8 g/kg thymidine (Sigma T9250) obtained from Envigo starting two days before infection.
MTD was determined through administration of compounds at increasing dosage until the maximum dose before adverse reactions were observed. Doses were increased in a stepwise manner from 1 mg/kg to 5, 10, 25, 50 mg/kg. […] MTD was evaluated by the University of North Texas Health Science Center (Fort Worth, Texas).

[2] = test system: S. epidermidis, E. cloacae, E. faecalis, K. pneumoniae, and S. aureus; assay: Growth of other species with TMI supplementation; type: cell-based; settings: fluorofolin 2×MIC, 0.3 mM TMI
Experimental: Where listed, growth media were prepared according manufacturer recommendations: LB Broth and LB Broth supplemented with 0.3 mM thymine (BD Biosciences 244610, Alfa Aesar A15879), 0.3 mM methionine (Sigma-Aldrich M9625), 0.3 mM inosine (EMD Millipore 4060), Mueller Hinton II Broth (Cation-Adjusted)/(CAMHB) (BD 212322) or 0.3 mM thymidine (Sigma-Aldrich T1895), Gutnick Minimal Media (1.0 g/L K2SO4, 13.5 g/L K2HPO4, 4.7 g/L KH2PO4, 0.1 g/L of MgSO4-7H2O, 10 mM NH4Cl as a nitrogen source, and 0.4% w/v glucose as a carbon source)^62.

[3] = test system: CDC & FDA Antibiotic Resistant P. aeruginosa Isolate Bank; assay: CDC clinical isolate panel growth inhibition; type: cell-based; settings: 50 μg/mL
Experimental: Strains with growth inhibition>80% were considered sensitive to fluorofolin treatment.
Clinical isolates^45 were inoculated into LB Broth a 96-well flat bottom plate and grown overnight to stationary phase at 37° C. […] Percent growth was calculated by dividing OD600 of fluorofolin antibiotic treated wells to vehicle only wells.

[4] = test system: PA14 mutants with disruptions in mexA, mexB and oprM; assay: MIC against MexAB-OprM transposon mutants; type: cell-based, P. aeruginosa; settings: oprM transposon mutants vs wildtype PA14
Experimental: FIG. 1I is the minimum inhibitory concentration of fluorofolin or trimethoprim against transposon mutants for each component of the MexAB-OprM efflux pump. MIC against wildtype PA14 was calculated to control for each drug stock. MIC values are representative of two independent replicates.
P. aeruginosa PA14 transposon mutants were generated by the Ausubel Lab (http://ausubellab.mgh.harvard.edu/cgi-bin/pa14/home.cgi). The MICs of fluorofolin and TMP against strains with disrupted MexA, MexB, and OprM were determined as above and compared to the parental strain. As transposon mutants in MexB were represented twice in this collection, the MIC was confirmed across both mutant strains.

purified human DHFR = target: T1, purified human DHFR (Homo sapiens, UniProt P00374); assay: Human DHFR in vitro assay; type: biochemical
T1 construct: purchased R&D Systems 8456-DR
Experimental: FIG. 1E is an analogous assay to FIG. 2B using purified human DHFR.
Human purified DHFR was purchased from R&D Systems (8456-DR). DHFR activity was assayed by monitoring the decrease in absorbance by NADPH at […]. DHFR enzyme (0.5 μg/mL), dihydrofolic acid (100 μM), and different concentrations of methotrexate, fluorofolin, or DMSO control was dissolved in 200 μL of Tris buffer (pH 7.5, Tris salt concentration 25 mM). Reaction was initiated by adding NADPH in a 10× stock (1 mM for final concentration 100 μM), and absorbance at 340 nm was monitored over time by Cytation 5 reader (Agilent). Activity was normalized to the DMSO control.

[5] = target: T2, purified E. coli DHFR (FolA) (Escherichia coli, UniProt P0ABQ4); assay: In vitro DHFR (FolA) activity, NADPH consumption at 340 nm; type: biochemical; settings: Hill equation fit
T2 construct: purchased Genscript (Piscataway, NJ)

Structure (SMILES): Nc1nc(N)c2c(ccc3c2ccn3Cc2ccnc(F)c2)n1 [fluorofolin]
- rate of accumulation in P. aeruginosa (P. aeruginosa PA14; 0-90 min): more rapidly
- cumulative accumulation (AUC of IBDM curves) (P. aeruginosa PA14; over 90 mins): higher levels
- maximum tolerated dose [1]: 25 mg/kg
- rescue of growth inhibition by TMI supplementation [2]: could also be rescued from fluorofolin growth inhibition
- sensitivity of isolates expressing KPC-5 and NDM-1 carbapenemase genes [3]: remained sensitive
- sensitivity of strains 7, 18 and 23 of the CDC panel (dfrB2) [3]: fluorofolin-sensitive
- clinical isolates resistant ([3]; OD600 vs vehicle control): 14.5%
- change of MIC in efflux pump mutants [4]: did not decrease their MIC against fluorofolin to the same extent
- IC50 (purified human DHFR): 14 ± 4 nM
- IC50 [5]: 2.5 ± 1.1 nM
